# Earlier results in patent US20040115181A1, “Composition for transmucosal adminstration containing conenzyme q as the active ingredient” (priority 2001, published 2004).
# Tested on: rats
# Conditions: continuously administered for 52 weeks, 1.2 g/kg/day, J. Agric. Food Chem., 1999, Vol. 47, P3756-3763
compound,measurement,value
COC1=C(OC)C(=O)C(C/C=C(\C)CC/C=C(\C)CC/C=C(\C)CC/C=C(\C)CC/C=C(\C)CC/C=C(\C)CC/C=C(\C)CC/C=C(\C)CC/C=C(\C)CCC=C(C)C)=C(C)C1=O [coenzyme Q10],Toxicity in safety test,no toxicity is observed
